Results on six compounds are retold here after patent US5789431A, “Naphthoquinone antitumor compound and method” (The University of North Carolina at Chapel Hill, priority 1996, dated 1998).

One data set relates to SR. Description: in vitro leukemia cell growth inhibition (NCI screen).
The next data set deals with SK-MEL-2. Description: in vitro melanoma cell growth inhibition (NCI screen).
A further data set has as its system NCI-H460. The experiment in a line: in vitro non-small cell lung cancer cell growth inhibition (NCI screen).
Another data set relates to UACC-62. The experiment in a line: in vitro melanoma cell growth inhibition (NCI screen).
Another data set has as its system MDA-MB-435. Description: in vitro breast cancer cell growth inhibition (NCI screen).
The subject of the next data set is LOX1MVI. Description: in vitro melanoma cell growth inhibition (NCI screen).
The next data set deals with HOP-92. Description: in vitro non-small cell lung cancer cell growth inhibition (NCI screen).
A further data set has as its system UACC-257. The experiment in a line: in vitro melanoma cell growth inhibition (NCI screen).
A further data set concerns SK-MEL-5. Described as above.
The next data set relates to OVCAR-3. The experiment in a line: in vitro ovarian cancer cell growth inhibition (NCI screen).
The next data set deals with MDA-N. Description: in vitro breast cancer cell growth inhibition (NCI screen).
The test system of the next data set is MDA-MB-231/ATCC. Described as above.
The subject of the next data set is M14. Description: in vitro melanoma cell growth inhibition (NCI screen).
The next data set relates to MALME-3M. Described as above.
The next data set relates to RXF-393. The experiment in a line: in vitro renal cancer cell growth inhibition (NCI screen).
The test system of the next data set is SW 620. The experiment in a line: in vitro colon cancer cell growth inhibition (NCI screen).
The subject of the next data set is SN12C. The experiment in a line: in vitro renal cancer cell growth inhibition (NCI screen).
The subject of the next data set is HT 29. Description: in vitro colon cancer cell growth inhibition (NCI screen).
For a further data set, the system named is TK-10. The experiment in a line: in vitro renal cancer cell growth inhibition (NCI screen).
For a further data set, the system named is NCI-H266. Description: in vitro non-small cell lung cancer cell growth inhibition (NCI screen).
Another data set deals with PC-3. Description: in vitro prostate cancer cell growth inhibition (NCI screen).
Another data set relates to BT-549. Description: in vitro breast cancer cell growth inhibition (NCI screen).
The next data set deals with COLO-205. Description: in vitro colon cancer cell growth inhibition (NCI screen).
The test system of a further data set is T-47D. Description: in vitro breast cancer cell growth inhibition (NCI screen).
In a further data set the test system is SNB-75. Description: in vitro CNS cancer cell growth inhibition (NCI screen).
Another data set has as its system IGROV1. The experiment in a line: in vitro ovarian cancer cell growth inhibition (NCI screen).
Another data set relates to human tumor cell lines. Type of data set: cell-based. Conditions: for GI50: Homo sapiens, cancer cell panel, general / most cell lines, read-out: logGI50 values in the cancer cell line panel (converted).
In the next data set the test system is HOP-62. The experiment in a line: in vitro non-small cell lung cancer cell growth inhibition (NCI screen).
In a further data set the test system is NCI-H23. The data set is described as above.
Another data set deals with HL-60(TB). Description: in vitro leukemia cell growth inhibition (NCI screen).
The next data set relates to U 251. Description: in vitro CNS cancer cell growth inhibition (NCI screen).
For a further data set, the system named is MOLT-4. Description: in vitro leukemia cell growth inhibition (NCI screen).
Another data set concerns OVCAR-4. Description: in vitro ovarian cancer cell growth inhibition (NCI screen). Conditions: OVACR-4.
Another data set deals with UO-31. Description: in vitro renal cancer cell growth inhibition (NCI screen).
The subject of another data set is HCT-15. Description: in vitro colon cancer cell growth inhibition (NCI screen).
A further data set has as its system ACHN. The experiment in a line: in vitro renal cancer cell growth inhibition (NCI screen).
The subject of a further data set is SK-OV-3. The experiment in a line: in vitro ovarian cancer cell growth inhibition (NCI screen).
In the next data set the test system is MCF7/ADR-RES. Description: in vitro breast cancer cell growth inhibition (NCI screen).
Another data set relates to K-562. Description: in vitro leukemia cell growth inhibition (NCI screen).
Another data set concerns NCI-H522. The experiment in a line: in vitro non-small cell lung cancer cell growth inhibition (NCI screen).
The subject of another data set is HCT-116. Description: in vitro colon cancer cell growth inhibition (NCI screen).
For a further data set, the system named is SF-539. Description: in vitro CNS cancer cell growth inhibition (NCI screen).

As to `COC(=O)CCC(=O)NC1=C(Nc2ccc(OC)cc2)C(=O)c2ccccc2C1=O` [Compound 56], the “cytotoxicity log GI50” value is reported as -5.16 M in the data set with SR; -5.31 M in the data set with SK-MEL-2; -5.18 M with NCI-H460; -5.67 M in the data set on UACC-62; -5.69 M with MDA-MB-435; -5.41 M with LOX1MVI. The “cytotoxicity log GI50” value was -5.66 M in the data set with HOP-92; -5.37 M in the data set on UACC-257; -5.75 M in the data set on SK-MEL-5; -5.48 M in the data set with OVCAR-3; -5.74 M in the data set on MDA-N; -4.63 M in the data set with MDA-MB-231/ATCC. Moreover, in the data set on M14, the “cytotoxicity log GI50” value was -5.22 M.

Consider `CCc1nc2c(n1CC)C(=O)c1ccccc1C2=O` [Compound 23], for which the “cytotoxicity log GI50” value is listed as -4.81 M in the data set with MALME-3M; -4.70 M in the data set with RXF-393; -4.57 M in the data set with SW 620; -4.54 M in the data set on UACC-62; -4.56 M in the data set on SN12C; -4.74 M in the data set with MDA-MB-435. Further, the “cytotoxicity log GI50” value with HT 29 is listed as -4.60 M; in the data set with TK-10, -4.66 M; in the data set with NCI-H266, -4.54 M; with PC-3, -4.73 M; in the data set with BT-549 it was -4.76 M; with COLO-205, -4.77 M. In addition, the “cytotoxicity log GI50” value with T-47D was -4.74 M; in the data set on UACC-257, -4.60 M; with SNB-75, -4.68 M; in the data set on OVCAR-3, -4.73 M; with IGROV1 it was -4.61 M; in the data set on MDA-MB-231/ATCC it was -4.77 M. The “cytotoxicity log GI50” value in the data set with M14 is -4.63 M. Also, in the data set on human tumor cell lines, the GI50 is ~10 µM.

As for `CCn1c(-c2ccc(OC)cc2)nc2c1C(=O)c1ccccc1C2=O` [Compound 27], the “cytotoxicity log GI50” value is on record as -4.22 M in the data set on HOP-62 and -4.21 M in the data set on NCI-H23. Also, the GI50 in the data set with human tumor cell lines was ~10 µM.

Turning to `Cc1nc2c(n1CCCl)C(=O)c1ccccc1C2=O` [Compound 21, 1-(2'-Chloroethyl)-2-methylnaphth[2,3-d]imidazole-4,9-dione], the “cytotoxicity log GI50” value is reported as -5.24 M with MALME-3M; -6.78 M with RXF-393; -4.79 M with HL-60(TB); -4.83 M with NCI-H460; -4.90 M with U 251; -4.89 M in the data set with MOLT-4. Also, the “cytotoxicity log GI50” value in the data set on UACC-62 is recorded as -4.89 M; in the data set with MDA-MB-435, -4.82 M; in the data set with HT 29 it was -4.80 M; with OVCAR-4, -4.83 M; in the data set with PC-3, -5.07 M; in the data set on COLO-205 it was -4.85 M. The “cytotoxicity log GI50” value in the data set on UACC-257 was -4.85 M; in the data set on SNB-75, -4.84 M; in the data set with UO-31, -6.22 M; with HCT-15 it was -5.10 M; in the data set on ACHN, -6.32 M; in the data set on IGROV1 it was -4.94 M. Moreover, the “cytotoxicity log GI50” value was -5.28 M with SK-OV-3; -4.79 M with MCF7/ADR-RES; -4.81 M with MDA-MB-231/ATCC; -5.33 M in the data set on M14; -4.80 M with K-562. The “cytotoxicity against tumor cells (in words)” value with human tumor cell lines (cancer cell line panel) is listed as “comparable to those of compounds 6-14”.

On to `CCNC1=C(NC(=O)c2ccccc2)C(=O)c2ccccc2C1=O` [Compound 47], for which the “cytotoxicity log GI50” value with MALME-3M is given as -4.77 M; in the data set on RXF-393 it was -4.62 M; in the data set on SW 620, -4.63 M; with UACC-62, -4.70 M; in the data set on NCI-H522, -4.95 M; in the data set on MDA-MB-435 it was -5.14 M. In addition, the “cytotoxicity log GI50” value in the data set with PC-3 is reported as -4.74 M; in the data set with COLO-205, -4.78 M; with T-47D it was -4.85 M; in the data set on HCT-116 it was -4.59 M; in the data set on UACC-257, -4.63 M; with OVCAR-3, -4.47 M. Also, the “cytotoxicity log GI50” value was -4.73 M in the data set on HCT-15; -4.62 M in the data set with SK-OV-3; -5.31 M in the data set on MDA-N; -4.78 M in the data set with MCF7/ADR-RES; -5.21 M in the data set with MDA-MB-231/ATCC; -4.58 M with M14.

For the compound `O=C(O)CCc1nc2c(n1Cc1ccccc1)C(=O)c1ccccc1C2=O` [Compound 61], the “cytotoxicity log GI50” value with RXF-393 was -4.60 M; in the data set on SF-539, -4.55 M; with SW 620, -4.50 M; in the data set with SK-MEL-2, -4.59 M; with NCI-H460 it was -4.42 M; with UACC-62 it was -4.42 M. Moreover, the “cytotoxicity log GI50” value was -4.62 M in the data set with NCI-H522; -4.72 M in the data set with MDA-MB-435; -4.47 M in the data set on TK-10; -4.57 M in the data set on LOX1MVI; -5.26 M in the data set on HOP-92; -4.47 M with COLO-205. Further, the “cytotoxicity log GI50” value was -4.44 M in the data set on HCT-116; -4.47 M in the data set on UACC-257; -4.67 M with SK-MEL-5; -4.51 M in the data set on UO-31; -4.55 M with OVCAR-3; -4.52 M with NCI-H23. Besides, the “cytotoxicity log GI50” value is -4.67 M in the data set with MDA-N, -4.47 M in the data set with MDA-MB-231/ATCC and -4.67 M in the data set on M14.
